Experimental data from paper PMC13198932, “Pyrazolone-based ERO1 inhibitors in ERO1-driven triple-negative breast cancer and SEPN1-related myopathy: Structure–activity relationship and therapeutic potential” (Pharmacological research, 2025).
“Also recorded” adds a separate entry of the source. Read-outs that look alike come from different tables or passages of the source.

Columns and labels:
recombinant ERO1A [1] = target: T1, recombinant ERO1A (Mus musculus, UniProt Q8R180); assay: AUR-based kinetic assay of ERO1A activity (recombinant ERO1A and PDIA1, HRP, Amplex Ultra Red); assay type: biochemical; details: for IC50: Table 1 in Fig. 3
T1 construct: GST-SMT3-mouse ERO1A (residues 43–464); GST-SMT3 (GST-SUMO) (N, cleaved yes); made in house; host or cells: E. coli Rosetta DE3 (Novagen)
T1 sequence (Q8R180 43-464): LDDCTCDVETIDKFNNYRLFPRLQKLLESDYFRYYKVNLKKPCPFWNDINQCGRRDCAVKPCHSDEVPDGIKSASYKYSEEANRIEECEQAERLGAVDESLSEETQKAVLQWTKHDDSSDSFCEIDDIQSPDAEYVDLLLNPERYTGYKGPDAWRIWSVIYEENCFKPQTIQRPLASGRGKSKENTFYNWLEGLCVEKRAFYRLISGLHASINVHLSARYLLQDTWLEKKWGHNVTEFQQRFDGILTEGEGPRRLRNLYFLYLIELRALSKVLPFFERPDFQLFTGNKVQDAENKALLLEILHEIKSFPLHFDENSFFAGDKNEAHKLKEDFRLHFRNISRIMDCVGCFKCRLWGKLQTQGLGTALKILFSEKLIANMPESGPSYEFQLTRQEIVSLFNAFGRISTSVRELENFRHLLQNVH
Excerpt: A GST-SMT3-mouse ERO1A (residues 43–464) and His-tagged PDIA1 [30] were expressed in the Rosetta DE3 bacteria (Novagen) and purified as described in [29, 31]. The GST-SMT3 and His tags were cleaved using Ulp protease (Z03691, GenScript) and thrombin protease (T6884, Merck), respectively. Successful tag removal was confirmed by a shift to a lower molecular weight for ERO1A on SDS-PAGE and by the absence of signal in anti-His immunoblotting for PDIA1.
The kinetic assay of ERO1A activity is based on a reaction involving recombinant ERO1A and PDIA1 proteins, horseradish peroxidase (Worthington), and 5 μM Amplex Ultra Red, as detailed in [29]. The effect of ERO1A inhibitors was evaluated by preincubating the compounds with ERO1A and measuring the inhibition of the linear reaction rate, and the corresponding IC50 values were determined using Prism 10 (GraphPad).
EN460 and 16 newly synthesized derivatives (I24–I40) (except for I31, which was not evaluated due to potential toxicity associated with its CN group) were evaluated for their ability to inhibit ERO1-dependent AUR fluorescence using a kinetic assay with recombinant ERO1 and PDIA1, as previously described (Figs. 3A and 3B). Raw kinetic data showing AUR fluorescence over time in reactions containing reduced ERO1, PDIA1 and EN460-derivatives are presented in Fig. Sup.1 A and Sup. 1B. Reaction rates, measured in presence or absence of varying concentrations of each compound, were used to calculate IC50 values, defined as the concentration required to inhibit 50 % of ERO1 enzymatic activity (Figs. 3C, 3D and Fig. Sup1C).

recombinant PDI = recombinant PDI (Homo sapiens, UniProt P07237); assay: PDI activity assay (insulin transhydrogenase / insulin turbidity assay); assay type: biochemical; details: 25 μM, 15 min incubation
Method: PDI activity was assessed using an insulin transhydrogenase assay. Bovine insulin (1 mg/mL) in sodium phosphate buffer, pH 7.0, containing 2 mM EDTA, was incubated with 1.4 μM recombinant PDI in the presence of vehicle (1 % DMSO) or various concentrations of isoquercetin (30 or 60 μM), EN460, I2, I26, or I29 (1, 5, or 25 μM) for 15 min. The turbidimetric assay of insulin disulfide reduction by PDI was initiated by adding 1 mM dithiothreitol, and the reaction was monitored at 650 nm for 80 min. PDI activity is presented as a percentage of the vehicle control.

[2] = target: T2, Human monoamine oxidase A (Mao-A) (Homo sapiens, UniProt P21397); assay: Mao-A activity assay (commercial kit, p-tyramine, H2O2 fluorimetry); assay type: biochemical; details: 25 μM, 10 min incubation
T2 construct: purchased Sigma-Aldrich
T2 sequence (P21397 1-527): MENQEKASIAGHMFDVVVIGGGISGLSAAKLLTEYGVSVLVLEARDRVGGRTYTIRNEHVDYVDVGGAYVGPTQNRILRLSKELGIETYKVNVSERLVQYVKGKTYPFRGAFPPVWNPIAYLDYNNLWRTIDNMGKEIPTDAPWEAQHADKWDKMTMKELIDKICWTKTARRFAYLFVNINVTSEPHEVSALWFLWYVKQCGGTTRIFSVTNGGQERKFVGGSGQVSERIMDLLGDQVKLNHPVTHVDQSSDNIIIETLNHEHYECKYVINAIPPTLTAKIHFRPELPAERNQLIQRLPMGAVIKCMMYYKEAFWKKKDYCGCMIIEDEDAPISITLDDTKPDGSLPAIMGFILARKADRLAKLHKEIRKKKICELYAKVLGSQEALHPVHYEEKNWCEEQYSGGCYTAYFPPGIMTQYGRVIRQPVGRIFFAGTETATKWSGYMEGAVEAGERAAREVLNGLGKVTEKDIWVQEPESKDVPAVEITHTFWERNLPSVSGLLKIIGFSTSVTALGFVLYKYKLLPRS
Method: Mao-A activity was measured using a commercial assay kit according to the manufacturer’s instructions. Mao-A (0.837 μM) was incubated with vehicle (1 % DMSO), Clorgyline (50 μM), or various concentrations (1, 5, or 25 μM) of EN460, I2, I26, or I29 for 10 min. Mao-A catalyzes the oxidative deamination of p-tyramine, generating H2O2, which was quantified fluorimetrically (λex= 530; λem= 585 nm). Mao-A activity is presented as a percentage of the vehicle control.

recombinant ERO1A [3] = target: T1, recombinant ERO1A; design: method as in PMID 39962052; details: SAR of I1–I23, Fig. 8A; cited from earlier work
MDAMB231 cells = assay: MTS assay of metabolic activity in MDAMB231 cells; assay type: cell-based, human; details: MDAMB231, dose-response, 24 h, 1 % FBS
Method: Six thousand cells (MDAMB231 and E0771) per well were seeded in 96-well plates and cultured in medium containing 1 % FBS. Cells were treated with varying concentrations of compounds and, after 24 h, incubated with MTS [3-(4,5-dimethylthiazol-2-yl)-5-(3-carboxymethoxyphenyl)-2-(4 sulfophenyl)2Htetrazolium]and PMS (phenazine methosulfate), following the instructions of the CellTiter 96® Aqueous Non-Radioactive Cell Proliferation Assay (Promega). Measurements were performed using a TECAN Infinite M200 plate reader with […] at 490 nm.

[4] = target: T3, ERO1 in MDA-MB-231 breast cancer cells (Homo sapiens, UniProt Q96HE7); assay: ERO1 redox state by non-reducing immunoblot in MDA-MB-231 cells; assay type: cell-based; details: MDA-MB-231, 1–100 μM, in physiological solution or dissolved in DMSO, Fig. 4B
T3 construct: Non-reducing Immunoblot of endogenous ERO1 in lysates of vehicle-treated MDAMB231; endogenous in cells; host or cells: MDA-MB-231
T3 sequence (Q96HE7 24-468): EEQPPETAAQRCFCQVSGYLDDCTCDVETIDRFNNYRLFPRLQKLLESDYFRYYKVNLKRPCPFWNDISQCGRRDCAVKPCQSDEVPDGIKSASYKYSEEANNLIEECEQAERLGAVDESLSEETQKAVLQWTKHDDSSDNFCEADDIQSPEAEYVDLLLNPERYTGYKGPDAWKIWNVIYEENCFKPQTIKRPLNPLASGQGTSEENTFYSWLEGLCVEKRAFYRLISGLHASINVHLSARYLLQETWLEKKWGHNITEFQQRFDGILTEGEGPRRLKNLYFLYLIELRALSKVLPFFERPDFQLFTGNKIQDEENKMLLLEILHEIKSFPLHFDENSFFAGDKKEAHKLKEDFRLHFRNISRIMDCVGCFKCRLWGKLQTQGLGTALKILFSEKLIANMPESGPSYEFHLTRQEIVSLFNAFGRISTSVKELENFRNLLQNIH
Method: MDAMB231 and E0771 cells were maintained in Dulbecco’s Modified Eagle’s Medium supplemented with 1 % fetal bovine serum and seeded at 70 % confluency in six-well plates one day prior to the experiment. Cells were treated with DTT (10 mM) and/or ERO1A inhibitors for 1–5 h. At the time of collection, phosphate-buffered saline containing 10 mM NEM was added, and cells were incubated on ice for 10 min in lysis buffer (50 mM Tris-HCl, pH 7.4; 150 mM NaCl; 1 % Triton X-100; 0.1 % SDS; 1 % sodium deoxycholate; protease inhibitors; and 10 mM NEM). Protein concentrations were determined using the BCA assay, and equal amounts of protein were separated by non-reducing SDS-PAGE followed by immunoblotting with a polyclonal antibody against ERO1A [33].

E0771 tumors = tested on: E0771 tumors; design: method as in PMID 35853086, PMID 36063727, PMID 33531624, PMID 39962052; details: previous studies; cited from earlier work
[5] = compounds dissolved in DMSO, preincubated with ERO1A, NA stands for not active, read-out: IC50
[6] = logarithm of IC50 in μM, compounds dissolved in DMSO, read-out: Log IC50 (confidence intervals) (converted)

Sequence of recombinant PDI (P07237 18-508, species assumed): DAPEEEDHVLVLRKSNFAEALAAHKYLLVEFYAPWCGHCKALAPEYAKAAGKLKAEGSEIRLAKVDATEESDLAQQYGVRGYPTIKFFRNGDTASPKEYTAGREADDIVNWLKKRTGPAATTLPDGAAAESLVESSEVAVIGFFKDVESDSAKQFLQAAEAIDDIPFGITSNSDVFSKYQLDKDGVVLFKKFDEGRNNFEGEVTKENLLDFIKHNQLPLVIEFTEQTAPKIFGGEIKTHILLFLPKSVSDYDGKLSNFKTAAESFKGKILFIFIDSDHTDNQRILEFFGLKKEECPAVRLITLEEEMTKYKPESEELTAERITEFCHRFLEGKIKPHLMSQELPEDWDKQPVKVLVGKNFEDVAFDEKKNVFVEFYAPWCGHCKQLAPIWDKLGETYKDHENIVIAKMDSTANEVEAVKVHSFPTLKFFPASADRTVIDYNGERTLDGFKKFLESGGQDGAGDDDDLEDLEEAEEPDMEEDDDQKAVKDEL

| Structure (SMILES) | ERO1 inhibitory activity (in words) (recombinant ERO1A [1]; compounds dissolved in DMSO) | IC50 (recombinant ERO1A [1]; [5]) | IC50 (recombinant ERO1A [1]; [6]) | ERO1 inhibitory activity (in words) (recombinant ERO1A [3]) | also measured |
| --- | --- | --- | --- | --- | --- |
| O=C(O)c1cccc(N2N=C(C(F)(F)F)/C(=C\c3ccc(-c4ccccc4)o3)C2=O)c1 [I3] |  |  |  | retained activity | IC50 (recombinant ERO1A [3]): 3.5 µM |
| O=C(O)c1cc(N2N=C(c3ccccc3)/C(=C\c3ccc(-c4ccccc4)o3)C2=O)ccc1Cl [I10] |  |  |  | abolished the activity |  |
| CC1=NN(c2ccc(Cl)c(C(=O)O)c2)C(=O)/C1=C/c1ccc(-c2ccccc2)o1 [I14] |  |  |  | abolished the activity |  |
| Cc1ccccc1N1N=C(C(F)(F)F)/C(=C\c2ccc(-c3ccccc3)o2)C1=O [I25] | lowest potency | 17.7 µM | 17.8 µM |  |  |
| COC(=O)c1cc(N2N=C(C(F)(F)F)/C(=C\c3ccc(-c4ccccc4)o3)C2=O)ccc1Cl [I6] |  |  |  | Inactive |  |
| O=C(O)c1cc(N2N=C(C(F)(F)F)/C(=C\c3ccc(-c4cccc(C(F)(F)F)c4)o3)C2=O)ccc1Cl [I37] | did not significantly affect inhibitory activity compared to EN460; also recorded: maintained the potency |  | 5.62 µM |  |  |
| O=C1/C(=C/c2ccc(-c3ccccc3)o2)C(C(F)(F)F)=NN1c1ccc(Cl)cc1 [I1] |  |  |  | inactive |  |
| O=C1/C(=C/c2ccc(-c3ccccc3)o2)C(C(F)(F)F)=NN1c1cccc2ccccc12 [I24] |  |  | 8.51 µM |  |  |
| O=C(O)c1cc(N2N=C(C(F)(F)F)/C(=C\c3ccc(-c4cccc(F)c4)o3)C2=O)ccc1Cl [I36] | did not significantly affect inhibitory activity compared to EN460; also recorded: maintained the potency |  |  |  |  |
| O=C1/C(=C/c2ccc(-c3ccccc3)o2)C(C(F)(F)F)=NN1c1ccc(Cl)cc1Cl [I2] |  |  |  | retained activity | PDI activity (percentage of the vehicle control) (recombinant PDI): inhibited PDI activity; metabolic activity (MTS assay) (MDAMB231 cells): significantly reduced metabolic activity; Mao-A activity (percentage of the vehicle control) [2]: inhibited Mao-A activity; IC50 (recombinant ERO1A [3]): 8 µM; VEGFA levels (E0771 tumors): reduced VEGFA levels |

Second part, led by results:

| ERO1 inhibitory activity (in words) (recombinant ERO1A [1]; compounds dissolved in DMSO) | IC50 (recombinant ERO1A [1]; [5]) | IC50 (recombinant ERO1A [1]; [6]) | Structure (SMILES) | ERO1 inhibitory activity (in words) (recombinant ERO1A [3]) | also measured |
| --- | --- | --- | --- | --- | --- |
| loss of activity | 10.5 µM |  | COc1cccc(-c2ccc(/C=C3/C(=O)N(c4ccc(Cl)c(C(=O)O)c4)N=C3C(F)(F)F)o2)c1 [I39] |  |  |
|  |  | 6.46 µM | Cc1cccc(C)c1N1N=C(C(F)(F)F)/C(=C\c2ccc(-c3ccccc3)o2)C1=O [I26] |  | PDI activity (percentage of the vehicle control) (recombinant PDI): inhibited PDI activity; Mao-A activity (percentage of the vehicle control) [2]: inhibited Mao-A activity |
|  | 10.7 µM | 10.7 µM | O=C1/C(=C/c2ccc(-c3ccccc3)o2)C(C(F)(F)F)=NN1c1cc(F)ccc1F [I30] |  |  |
| reduced activity | 12 µM |  | O=C(O)c1cc(N2N=C(C(F)(F)F)/C(=C\c3ccc(-c4ccccc4)s3)C2=O)ccc1Cl [I40] |  |  |
| loss of activity |  |  | O=C(O)c1cc(N2N=C(C(F)(F)F)/C(=C\c3ccc(-c4ccc(F)cc4)o3)C2=O)ccc1Cl [I38] |  |  |
| retained activity | 5.6 µM |  | O=C1/C(=C/c2ccc(-c3ccccc3)o2)C(C(F)(F)F)=NN1c1cccc(S(=O)(=O)O)c1 [I34] |  | metabolic activity (MTS assay) (MDAMB231 cells): inactive; IC50 / potency relative to EN460 (recombinant ERO1A [1]; compared with EN460): comparable to EN460; ERO1 inhibitory activity (in words) (recombinant ERO1A [1]; compound in aqueous solution (physiological solution)): completely inactive; ERO1 reduction / activity in cells [4]: failed to reduce ERO1A; also recorded: completely inactive in cells; ERO1 reduction / activity in cells ([4]; listed as I34(DMSO)): inactive in cells |
|  |  | 4.79 µM | O=C1/C(=C/c2ccc(-c3ccccc3)o2)C(C(F)(F)F)=NN1c1ccccc1Cl [I28] |  |  |
|  | 19.1 µM | 19.1 µM | O=C1/C(=C/c2ccc(-c3ccccc3)o2)C(C(F)(F)F)=NN1c1cccnc1 [I32] |  |  |
|  |  | 8.51 µM | COc1ccccc1N1N=C(C(F)(F)F)/C(=C\c2ccc(-c3ccccc3)o2)C1=O [I27] |  |  |
